Key:
[1] = system: Human smooth muscle cells (SMC); assay: Proliferation of human smooth muscle cell cultures treated with rhodamine 123 and/or FDG; assay type: cell-based
Protocol: Human smooth muscle cells (SMC) were treated with rhodamine 123 and/or with FDG.
Three levels of Rhodamine 123 concentration were used first: 0.05, 1 and 2.5 mg/ml.
A combined composition of FDG and Rhodamine at various dosages were evaluated on the same human SMC cultures. The doses (FDG/rhodamine in mg/ml) were as follows: […]

[2] = Maximal tolerated dose of Rhodamine 123 delivered intra-venously in man; assay type: in vivo; settings: 70 kg patient
Protocol: Because inhibitors of oxidative phorphorylation are extremely toxic to a subject in the doses needed for efficacy via the systemic route, such inhibitors have been largely overlooked for effective treatment of conditions such as cancer. […] It is also known that the maximal tolerated dose of Rhodamine 123 delivered intra-venously in man is 95 mg/m^2. For a 70 kg patient, the maximum dose of systemically delivered rhodamine is about 150 mg. […] There was an accumulation of rhodamine in the prostate of the patients, but it was not sufficient to provoke a significant response.

prostate tumours = settings: maximum non-lethal systemic dose, cited from earlier work

Substance: rhodamine 123
- concentration enough to stop smooth muscle cell proliferation [1]: 5 µg/mL
- proliferation rates of SMC compared to non rhodamine treated cells ([1]; Rhodamine 123 0.05 mg/ml): 90+21.6%
- proliferation rates of SMC compared to non rhodamine treated cells ([1]; Rhodamine 123 1 mg/ml): 51.2 ± 10.7%
- proliferation rates of SMC compared to non rhodamine treated cells ([1]; Rhodamine 123 2.5 mg/ml): 7.3 ± 5.1%
- SMC proliferation ([1]; higher rhodamine concentrations (above 2.5 mg/ml)): totally suppressed
- maximum dose of systemically delivered rhodamine [2]: about 150 mg
- effect on prostate tumours (prostate tumours): no useful effect
- rhodamine in the prostate of the patients (prostate tumours; not sufficient to provoke a significant response): accumulation

Reference: US20090324682A1 (priority 2004, published 2009)
